Measured values taken from PMC4627231, “Targeting the sugar metabolism of tumors with a first-in-class 6-phosphofructo-2-kinase (PFKFB4) inhibitor” (Oncotarget, 2015).

How the values were obtained:
[1] = target: human recombinant PFKFB4 (Homo sapiens, UniProt Q16877); experiment: In vitro kinase assay with purified recombinant human PFKFB4; format: biochemical; conditions: Lineweaver-Burk analyses
Experimental: (§1) Figure 1 Compound 5MPN inhibits recombinant PFKFB4 enzyme activity A. Representation of the 5MPN molecule docked in the crystal structure of rat testes PFKFB4. 5MPN is shown in thicker stick representation than the surrounding protein residues. B. Molecular structure of 5MPN (MW, 305.3 Da). In vitro kinase assays using purified recombinant human PFKFB4 were performed as described in the presence or absence of 0.1, 1 or 10 μM 5MPN. Michaelis-Menten C. and Lineweaver-Burk double reciprocal D. plots examining PFKFB4 enzyme activity as a function of F6P concentration (0 - 2000 μmol/L) are shown. E. In vitro kinase assays using purified recombinant human PFKFB3 were performed as described in the presence or absence of 0.1, 1 or 10 μM 5MPN and the Michaelis-Menten plot examining PFKFB3 enzyme activity as a function of F6P concentration (0 - 400 μmol/L) is shown. Data shown are representative of three independent experiments. […] The activity of 5MPN against 97 kinases was examined using a commercially available active-site dependent competition binding assay core service (KINOMEscanEDGE) that quantifies the capacity of test agents to compete with an immobilized, active-site directed ligand using a DNA-tagged kinase and immobilized ligand and compound.

[2] = target: human recombinant PFKFB3 (Homo sapiens, UniProt Q16875); experiment: In vitro kinase assay with purified recombinant human PFKFB3; format: biochemical; conditions: 10 μM
Chain of human recombinant PFKFB3 (Q16875 whole entry): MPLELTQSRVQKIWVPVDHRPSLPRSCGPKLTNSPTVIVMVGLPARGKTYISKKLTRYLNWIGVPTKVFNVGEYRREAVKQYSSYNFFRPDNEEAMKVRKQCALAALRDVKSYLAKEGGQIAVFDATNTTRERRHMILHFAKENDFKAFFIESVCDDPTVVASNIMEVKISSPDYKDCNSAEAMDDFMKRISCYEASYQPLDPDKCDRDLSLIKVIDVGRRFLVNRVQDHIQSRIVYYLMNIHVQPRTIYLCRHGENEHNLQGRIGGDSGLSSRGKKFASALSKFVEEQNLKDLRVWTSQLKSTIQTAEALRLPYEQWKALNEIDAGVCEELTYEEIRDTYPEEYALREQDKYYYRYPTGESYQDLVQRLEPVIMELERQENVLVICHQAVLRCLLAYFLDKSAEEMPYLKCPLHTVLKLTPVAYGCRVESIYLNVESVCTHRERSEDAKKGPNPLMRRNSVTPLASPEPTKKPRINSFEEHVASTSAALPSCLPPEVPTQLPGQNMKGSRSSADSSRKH
Experimental: as §1

[3] = tested on: recombinant PFK-1; experiment: PFK-1 kinase activity; format: biochemical; conditions: 10 μM
[4] = tested on: glycolysis in H460 cells; experiment: Glycolysis assay (3H2O from 5-[3H]glucose); format: cell-based, human; conditions: 10 μM, 6-72 hours
Experimental: Cells growing in 6-well plates were incubated in 500 μl of complete medium containing 1 μCi of 5-[^3H]glucose per well for 60 min in 5% CO2 at 37°C. Media was collected, ^3H2O formed via glycolysis from the 5-[^3H]glucose measured and counts normalized as previously described. All data are expressed as the mean ± SD of three experiments. Statistical significance was assessed by the two-sample t test (independent variable).

[5] = tested on: Large T antigen-immortalized, tamoxifen-inducible PFKFB4-/- fibroblasts; experiment: Viable cell count (trypan blue exclusion); format: cell-based, mice; conditions: fibroblasts ± 10 μM 4HT, 10 μM 5MPN, 24 hours
Text: H460, H1299, H441, H522 and A549 non-small cell lung cancer (NSCLC), MDA-MB-231 (breast), LNCaP (prostatic) and HCT116 (colon) adenocarcinoma and Lewis lung carcinoma (LLC) cell lines were obtained from ATCC (authenticated by STR analysis) and were used within 6 months of acquisition. PFKFB4^−/− ear pinna fibroblasts isolated from TamCre/loxP/PFKFB4^−/− mice were immortalized as described previously. Normal bronchial epithelial cells (NHBE) were obtained from Lonza and NHBE cells expressing telomerase, SV40 large T antigen and activated Ras (hT/LT/Ras) were a gift from Dr. B. J. Rollins, Dana Farber Cancer Institute. All cell lines were tested and found negative for mycoplasma (PCR Mycoplasma Detection Kit, ABM). Cell lines were grown in DMEM (A549, LNCaP, MDA-MB-231, LLC and PFKFB4^−/−), RPMI 1640 (H460, H1299, H441, H522) and McCoy's 5A media (HCT116) (all from Invitrogen) containing 10% fetal calf serum (Hyclone). NHBE and hT/LT/Ras cells were grown in BEGM containing SingleQuots (Lonza). All lines were cultured at 37°C in 5% CO2. […]
Viability was determined using trypan blue exclusion as previously described. […] Cells excluding trypan blue were counted using a standard hemocytometer (Hausser Scientific) to determine total numbers of viable cells. Data are expressed as mean ± SD of three experiments.

[6] = tested on: H460 cells; experiment: Cell cycle analysis by flow cytometry (PI); format: cell-based, human; conditions: 10μM 5MPN
Experimental: To measure apoptosis, cells were stained with annexin V and propidium iodide and examined as previously described. For cell cycle experiments, cells were detached, washed with cold PBS and fixed in 70% ethanol at 4°C for 30 minutes. The cells then were pelleted by centrifugation, resuspended in PBS containing PI and RNase A, incubated at 37°C in the dark for 30 minutes and analyzed by flow cytometry (BD FACSCalibur). Data were analyzed using FlowJo software (TREE STAR Inc.). Results were calculated as the mean ± SD of three experiments and data shown are representative of three independent experiments.

[7] = tested on: H460 human lung adenocarcinoma xenografts; experiment: H460 xenograft growth in athymic mice; format: in vivo, BALB/c athymic mice; conditions: 120 mg/kg daily by gavage
Experimental: For xenograft studies, LLC or H460 cells collected from exponential growth phase culture were washed and resuspended in PBS. Groups of female C57BL/6 mice were injected with LLC cells (n=10 per group, s.c., 1×10^6 cells) and groups of female BALB/c athymic mice (Charles River) were injected with H460 cells (n=10 per group, s.c, 5 × 10^6 cells). Tumor masses were determined in a blinded fashion with Vernier calipers using the formula: mass (mg) = (width, mm)^2 X (length, mm)/2 as previously described. When tumor masses were 150-200 mg, mice were randomized to daily DMSO or 5MPN (in 30% Captisol, 100 μl, by gavage). Tumor measurements and body weights were followed daily. All data are expressed as the mean ± SD of two experiments. Statistical significance was assessed by the two-sample t test (independent variable).

[8] = tested on: 2-[18F]-fluoro-2-deoxyglucose uptake by LLC xenografts; experiment: FDG uptake by micro-PET in LLC tumors; format: in vivo, C57BL/6 mice; conditions: 120 mg/kg by gavage, once, one hour before imaging
Experimental: At the end of the experiment, one hour after a single dose of DMSO or 5MPN, animals were euthanized, tumors removed and sections fixed in 10% formaldehyde for immunohistochemistry or snap-frozen in liquid nitrogen for analyses. Subsets of tumor-bearing mice (n=3) were administered a single dose of either DMSO or 5MPN one hour prior to imaging then injected i.p. with 2-[^18F]-fluoro-2-deoxyglucose (FDG, 150μCi, 100 μl) and, 45 min after FDG injection, were anesthetized with 2% isoflurane in oxygen and transferred to a R-4 Rodent Scanner (CTI Concorde Microsystems) micro-positron emission tomograph to capture images as previously described. Regions of interest in the tumors and cerebellum were quantified in quadruplicate and expressed as the mean ± SD of the ratio of tumor:cerebellar FDG uptake. Animal experiments were approved by the University of Louisville Institutional Animal Care and Use Committee.

Chain of human recombinant PFKFB4 (Q16877 whole entry): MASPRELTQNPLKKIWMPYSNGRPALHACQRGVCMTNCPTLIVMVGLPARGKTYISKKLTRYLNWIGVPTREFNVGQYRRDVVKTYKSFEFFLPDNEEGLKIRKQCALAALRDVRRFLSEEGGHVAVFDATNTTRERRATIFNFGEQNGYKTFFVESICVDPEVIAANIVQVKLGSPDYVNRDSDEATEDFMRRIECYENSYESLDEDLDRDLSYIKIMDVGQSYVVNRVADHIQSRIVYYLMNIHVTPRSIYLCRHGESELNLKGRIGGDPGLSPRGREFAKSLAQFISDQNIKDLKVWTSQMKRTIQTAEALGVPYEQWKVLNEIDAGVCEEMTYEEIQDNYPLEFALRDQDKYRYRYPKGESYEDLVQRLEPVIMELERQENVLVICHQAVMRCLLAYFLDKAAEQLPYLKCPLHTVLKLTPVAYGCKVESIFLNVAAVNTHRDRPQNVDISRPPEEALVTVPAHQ

Compound: COc1cccc2c(NCCCCCO[N+](=O)[O-])ccnc12 [Compound 5MPN, 5-(n-(8-methoxy-4-quinolyl)amino)pentyl nitrate]
- mode of inhibition [1]: competitive inhibitor of the F6P binding site
- Ki ([1]; F6P as substrate, read-out: Ki for 5MPN inhibition): 8.6 ± 1.9 µM
- inhibition of PFKFB3 kinase activity [2]: no inhibition of kinase activity
- inhibition of PFK-1 kinase activity [3]: no inhibition of kinase activity
- effect on glycolysis [4]: reduced
- effect of genomic deletion of Pfkfb4 on anti-proliferative effect [5]: sensitized
- cell cycle arrest [6]: marked G1 arrest
- body weight ([7]; H460-bearing BALB/c athymic mice): without affecting body weight
- tumor growth ([7]; H460 xenografts in BALB/c athymic mice): suppressed the growth
- 2-[18F]-fluoro-2-deoxyglucose uptake (positron emission tomography) [8]: marked reduction
